Test [1] addresses T1, Cbl-b (Homo sapiens, UniProt Q13191). Description: Cbl-b inhibition assay (Cbl-b activity assay, FRET, Biological Example 1; 100 mM NaCl, 60 nM Src kinase). The conditions noted are these: upper bound stated in text lists; read-out: IC50 values in the Cbl-b inhibition assay of Biological Example 1. The test is classed as biochemical. The method, boiled down: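 Binding-based Cbl-b activity assay. Src-phosphorylated, N-terminally biotin-Avi-tagged Cbl-b recruits labelled UbcH5B-Ub, and proximity to streptavidin-terbium yields FRET.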

Test [2] relates to T-cell. Kind of test: CD25 cell surface staining on T-cells co-stimulated with anti-CD3 and anti-CD28 antibody (Biological Example 2). The class given is cell-based, human. The conditions noted are these: Homo sapiens, T-cell, fold change over baseline, primary human total T-cells, read-out: CD25 staining Anti-CD3/Anti-CD28 stimulation; for fold induction at 0.3 µM: 0.3 μM Cbl-b inhibitor; for fold induction at 1 µM: 1 μM Cbl-b inhibitor; for fold induction at 4 µM: 4 μM Cbl-b inhibitor. The gist of the method: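 Values are fold-change over baseline: readings (IL-2 release, CD25 staining) from inhibitor-treated T-cells divided against untreated cells […]. No detailed procedure stated.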

Test [3] concerns the target T1, Cbl-b. Kind of test: Cbl-b activity assay (Cbl-b inhibition assay), TR-FRET of Cbl-b interaction with UbcH5B-Ub. The test is classed as biochemical. The conditions noted are these: assay buffer with 100 mM NaCl, 60 nM Src kinase; read-out: Cbl-b activity IC50. The method, boiled down:
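Compound-treated Cbl-b was incubated 1.5 h with Src kinase (60 nM final; 30 nM for asterisked values, which also used 50 mM instead of 100 mM NaCl), 1 mM ATP and 5 mM MgCl2. Binding to fluorescent Ub-loaded UbcH5B (C85K mutant) was then read by TR-FRET after 1 h more.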
(In TR-FRET formats the signal depends on donor and acceptor labels being close together.)

The target of test [4] is Cbl-b (residues 36-427) (Homo sapiens, UniProt Q13191). Description: Cbl-b binding assay (SPR, Biacore T200). Conditions: 20° C., 1:1 binding model. The method, boiled down:
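NeutrAvidin capture chip, 20° C; 50 s injections at 50 μl/min, 90-180 s dissociation; 0.3 M NaCl regeneration. Asterisked column: 50 mM NaCl buffer and 30 nM Src kinase in place of 100 mM NaCl and 60 nM Src kinase. 1:1 fit.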
In general terms: Surface plasmon resonance follows binding to a sensor surface in real time, without labels.

Some results are limits rather than exact numbers.

T1 sequence (Q13191 36-427): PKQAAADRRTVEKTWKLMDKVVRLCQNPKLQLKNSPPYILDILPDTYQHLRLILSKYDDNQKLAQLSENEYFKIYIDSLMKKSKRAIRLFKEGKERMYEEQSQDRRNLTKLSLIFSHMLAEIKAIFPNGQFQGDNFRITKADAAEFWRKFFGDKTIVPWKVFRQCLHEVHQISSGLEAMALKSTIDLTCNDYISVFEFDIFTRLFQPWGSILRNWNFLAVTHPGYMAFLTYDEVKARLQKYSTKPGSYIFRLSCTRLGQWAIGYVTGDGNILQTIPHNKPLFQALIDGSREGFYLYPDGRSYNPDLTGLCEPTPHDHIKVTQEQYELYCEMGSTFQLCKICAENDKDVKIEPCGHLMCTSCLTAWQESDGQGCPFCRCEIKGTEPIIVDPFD
Sequence of Cbl-b (residues 36-427) (Q13191 36-427): as above

The term IC50 denotes the midpoint of a concentration-inhibition curve. The term Kd denotes the free concentration of one partner at which half of the binding sites on the other are occupied at equilibrium, for simple one-to-one binding. The low end stands for a tighter complex, the high end for a looser complex. Take `C[C@H](Cc1nncn1C)c1cccc(NC(=O)c2ccnc(C(F)(F)F)n2)c1` [Compound 187, (R)-N-(3-(1-(4-methyl-4H-1,2,4-triazol-3-yl)propan-2-yl)phenyl)-2-(trifluoromethyl)pyrimidine-4-carboxamide]: the IC50 in test [1] was not above 500 nM. Also, in test [2], the fold induction at 0.3 µM lay in the range of 1.51 to 1.75, the fold induction at 1 µM is more than 1.76 and the fold induction at 4 µM is more than 1.76. In addition, the IC50 in test [3] was 100 to 300 nM. This compound also came in with an equilibrium dissociation constant (Kd) in test [4] of 100 to 300 nM.
As for `C[C@H](Cc1nncn1C)c1cccc(NC(=O)c2cccc(C(F)(F)CO)n2)c1` [Compound 188, (R)-6-(1,1-difluoro-2-hydroxyethyl)-N-(3-(1-(4-methyl-4H-1,2,4-triazol-3-yl)propan-2-yl)phenyl)picolinamide], the IC50 in test [1] was not above 500 nM. Further, in test [2], the fold induction at 0.3 µM is 1.01 to 1.3, the fold induction at 1 µM was 1.31 to 1.5 and the fold induction at 4 µM is more than 1.76. Besides, the IC50 in test [3] lay in the range of 100 to 300 nM. Also, the dissociation constant Kd in test [4] was in the range of 301 to 1000 nM.
For the compound `C[C@H](Cc1nncn1C)c1cccc(NC(=O)c2cncc(C(F)(F)F)n2)c1` [Compound 189, (R)-N-(3-(1-(4-methyl-4H-1,2,4-triazol-3-yl)propan-2-yl)phenyl)-6-(trifluoromethyl)pyrazine-2-carboxamide], in test [1], the IC50 is not above 500 nM. For the same compound, in test [2], the fold induction at 0.3 µM is more than 1.76, the fold induction at 1 µM is more than 1.76 and the fold induction at 4 µM was more than 1.76. Besides, the IC50 in test [3] lay in the range of 100 to 300 nM. Further, in test [4], the Kd was in the range of 301 to 1000 nM.
Turning to `C[C@H](Cc1nncn1C)c1cccc(NC(=O)c2cc(C3(O)COC3)cc(C(F)(F)F)n2)c1` [Compound 190, (R)-4-(3-hydroxyoxetan-3-yl)-N-(3-(1-(4-methyl-4H-1,2,4-triazol-3-yl)propan-2-yl)phenyl)-6-(trifluoromethyl)picolinamide], the IC50 in test [1] was not above 500 nM. For the same compound, in test [2], the fold induction at 0.3 µM is more than 1.76, the fold induction at 1 µM is more than 1.76 and the fold induction at 4 µM is more than 1.76. In addition, the concentration for half-maximal inhibition (IC50) in test [3] fell in the range of 100 to 300 nM. The compound further came in with a Kd in test [4] of 100 to 300 nM.
Consider `C[C@H](Cc1nncn1C)c1cccc(NC(=O)c2cc(S(C)(=O)=O)cc(C3CC3)n2)c1` [Compound 198, 6-cyclopropyl-N-[3-[(1R)-1-methyl-2-(4-methyl-1,2,4-triazol-3-yl)ethyl]phenyl]-4-methylsulfonyl-pyridine-2-carboxamide], for which the IC50 in test [1] was not above 500 nM. Also, in test [2], the fold induction at 0.3 µM lay within 1.01 to 1.3, the fold induction at 1 µM was in the range of 1.01 to 1.3 and the fold induction at 4 µM is less than 1. In addition, the IC50 in test [3] lay in the range of 100 to 300 nM. The dissociation constant Kd in test [4] lay in the range of 100 to 300 nM.
As for `C[C@H](Cc1nncn1C)c1cccc(NC(=O)c2cc(S(N)(=O)=O)cc(C(F)(F)F)n2)c1` [Compound 200, (R)-N-(3-(1-(4-methyl-4H-1,2,4-triazol-3-yl)propan-2-yl)phenyl)-4-sulfamoyl-6-(trifluoromethyl)picolinamide], in test [1], the concentration for half-maximal inhibition (IC50) was not above 500 nM. Besides, in test [2], the fold induction at 0.3 µM lay within 1.01 to 1.3, the fold induction at 1 µM lay within 1.01 to 1.3 and the fold induction at 4 µM fell in the range of 1.01 to 1.3. Also, the IC50 in test [3] lay within 100 to 300 nM. The Kd in test [4] was in the range of 301 to 1000 nM.
Take `CNS(=O)(=O)c1cc(C(=O)Nc2cccc([C@H](C)Cc3nncn3C)c2)nc(C(F)(F)F)c1` [Compound 201, (R)-N-(3-(1-(4-methyl-4H-1,2,4-triazol-3-yl)propan-2-yl)phenyl)-4-(N-methylsulfamoyl)-6-(trifluoromethyl)picolinamide]: the IC50 in test [1] was not above 500 nM. Besides, in test [2], the fold induction at 0.3 µM lay within 1.01 to 1.3, the fold induction at 1 µM lay in the range of 1.01 to 1.3 and the fold induction at 4 µM lay within 1.01 to 1.3. Further, the IC50 in test [3] was 100 to 300 nM. For the same compound, the Kd in test [4] lay in the range of 301 to 1000 nM.
In the case of `C[C@H](Cc1nncn1C)c1cccc(NC(=O)c2cc(O[C@H]3CC[C@@H](O)C3)ccn2)c1` [Compound 206, 4-((1S,3R)-3-hydroxycyclopentyloxy)-N-(3-((R)-1-(4-methyl-4H-1,2,4-triazol-3-yl)propan-2-yl)phenyl)picolinamide], in test [1], the IC50 is not above 1000 nM. Also, in test [2], the fold induction at 0.3 µM lay in the range of 1.01 to 1.3, the fold induction at 1 µM was in the range of 1.01 to 1.3 and the fold induction at 4 µM was 1.01 to 1.3. In addition, the IC50 in test [3] fell in the range of 301 to 1000 nM. Moreover, in test [4], the Kd fell in the range of 301 to 1000 nM.
Consider `Cc1ccc(C(=O)Nc2cccc([C@H](C)Cc3nnc[nH]3)c2)nc1C1CC1` [Compound 212, (R)-N-(3-(1-(4H-1,2,4-triazol-3-yl)propan-2-yl)phenyl)-6-cyclopropyl-5-methylpicolinamide], for which the IC50 in test [1] was not above 500 nM. In test [2], the fold induction at 0.3 µM lay within 1.51 to 1.75, the fold induction at 1 µM fell in the range of 1.51 to 1.75 and the fold induction at 4 µM was more than 1.76. Further, the IC50 in test [3] is 301 to 1000 nM. The same compound displayed a Kd in test [4] of 1000 to 3000 nM.
With `Cc1conc1C[C@@H](C)c1cccc(NC(=O)c2ccnc(C(F)(F)F)n2)c1` [Compound 213a, (R)-N-(3-(1-(4-methylisoxazol-3-yl)propan-2-yl)phenyl)-2-(trifluoromethyl)pyrimidine-4-carboxamide], in test [1], the IC50 was not above 500 nM. For the same compound, in test [2], the fold induction at 0.3 µM is 1.01 to 1.3, the fold induction at 1 µM lay in the range of 1.01 to 1.3 and the fold induction at 4 µM was 1.01 to 1.3. In addition, the IC50 in test [3] was in the range of 100 to 300 nM. In test [4], this compound came in with a Kd of 100 to 300 nM.
As for `C[C@H](Cc1nncn1C)c1cccc(NC(=O)c2cc(C(=O)N3CC[C@](C)(O)C3)ccn2)c1` [Compound 222, 4-((S)-3-hydroxy-3-methylpyrrolidine-1-carbonyl)-N-(3-((R)-1-(4-methyl-4H-1,2,4-triazol-3-yl)propan-2-yl)phenyl)picolinamide], the IC50 in test [1] is not above 1000 nM. In test [2], the fold induction at 0.3 µM lay in the range of 1.51 to 1.75, the fold induction at 1 µM fell in the range of 1.31 to 1.5 and the fold induction at 4 µM fell in the range of 1.51 to 1.75. Further, in test [3], the IC50 is 301 to 1000 nM. The same compound came in with a Kd in test [4] of 1000 to 3000 nM.
For the compound `C[C@H](Cc1nncn1C)c1cccc(NC(=O)c2cc(C(=O)N3C[C@@H](O)C[C@H]3C)ccn2)c1` [Compound 224, 4-((2R,4S)-4-hydroxy-2-methylpyrrolidine-1-carbonyl)-N-(3-((R)-1-(4-methyl-4H-1,2,4-triazol-3-yl)propan-2-yl)phenyl)picolinamide], in test [1], the IC50 is not above 500 nM. In addition, in test [2], the fold induction at 0.3 µM lay within 1.01 to 1.3, the fold induction at 1 µM was 1.01 to 1.3 and the fold induction at 4 µM lay within 1.51 to 1.75. Moreover, the IC50 in test [3] lay in the range of 100 to 300 nM. Moreover, the Kd in test [4] was in the range of 301 to 1000 nM.
As for `C[C@H](Cc1nncn1C)c1cccc(NC(=O)c2cc(C(=O)N3C[C@@H](O)[C@H](F)C3)ccn2)c1` [Compound 240, 4-((3R,4R)-3-fluoro-4-hydroxypyrrolidine-1-carbonyl)-N-(3-((K)-1-(4-methyl-4H-1,2,4-triazol-3-yl)propan-2-yl)phenyl)picolinamide], in test [1], the IC50 was not above 500 nM. Besides, in test [2], the fold induction at 0.3 µM was less than 1, the fold induction at 1 µM fell in the range of 1.01 to 1.3 and the fold induction at 4 µM was 1.31 to 1.5. Moreover, in test [3], the IC50 lay in the range of 100 to 300 nM. In addition, the Kd in test [4] lay in the range of 100 to 300 nM.

The record behind these values is US20220324835A1 (Nurix Therapeutics, Inc., priority 2018, published 2022).
